From patent publication US20210269451A1, “PYRIDINYL HETEROCYCLYL COMPOUNDS FOR THE TREATMENT OF AUTOIMMUNE DISEASE” (Hoffmann-La Roche Inc., priority 2018, published 2021)

Biological target: T1, hERG channel (Homo sapiens, UniProt Q12809)
T1 construct: expressed in transfected cells; host or cells: CHO (Chinese hamster ovary), CHOhERG
Assay: hERG channel inhibition assay (patch-clamp, CHOhERG cells);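 on hERG IC20/TLR7 IC50: ratio above 30 indicates an adequate safety window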;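 on hERG IC20/TLR8 IC50: ratio above 30 indicates an adequate safety window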
Format: cell-based
Conditions: for IC50 / IC20: CHOhERG cells, whole-cell patch-clamp; for IC20: human, CHO cells stably expressing hERG (CHOhERG); for hERG IC20/TLR7 IC50 / hERG IC20/TLR8 IC50 / hERG IC20/TLR9 IC50: safety ratio
Protocol: hERG channel inhibition assay:
The hERG K^+ channels were cloned in humans and stably expressed in a CHO (Chinese hamster ovary) cell line. CHOhERG cells were used for patch-clamp (voltage-clamp, whole-cell) experiments. Cells were stimulated by a voltage pattern to activate hERG channels and conduct IKhERG currents (rapid delayed outward rectifier potassium current of the hERG channel). After the cells were stabilized for a few minutes, the amplitude and kinetics of IKhERG were recorded at a stimulation frequency of 0.1 Hz (6 bpm). Thereafter, the test compound was added to the preparation at increasing concentrations. For each concentration, an attempt was made to reach a steady-state effect, usually, this was achieved within 3-10 min at which time the next highest concentration was applied. The amplitude and kinetics of IKhERG are recorded in each concentration of the drug which were compared to the control values (taken as 100%). (references: Redfern W S, Carlsson L, Davis A S, Lynch W G, MacKenzie I, Palethorpe S, Siegl P K, Strang I, Sullivan A T, Wallis R, Camm A J, Hammond T G. 2003; Relationships between preclinical cardiac electrophysiology, clinical QT interval prolongation and torsade de pointes for a broad range of drugs: evidence for a provisional safety margin in drug development. Cardiovasc. Res. 58:32-45, Sanguinetti M C, Tristani-Firouzi M. 2006; hERG potassium channels and cardiac arrhythmia. Nature 440:463-469, Webster R, Leishman D, Walker D. 2002; Towards a drug concentration effect relationship for QT prolongation and torsades de pointes. Curr. Opin. Drug Discov. Devel. 5:116-26).

T1 sequence (Q12809 whole entry): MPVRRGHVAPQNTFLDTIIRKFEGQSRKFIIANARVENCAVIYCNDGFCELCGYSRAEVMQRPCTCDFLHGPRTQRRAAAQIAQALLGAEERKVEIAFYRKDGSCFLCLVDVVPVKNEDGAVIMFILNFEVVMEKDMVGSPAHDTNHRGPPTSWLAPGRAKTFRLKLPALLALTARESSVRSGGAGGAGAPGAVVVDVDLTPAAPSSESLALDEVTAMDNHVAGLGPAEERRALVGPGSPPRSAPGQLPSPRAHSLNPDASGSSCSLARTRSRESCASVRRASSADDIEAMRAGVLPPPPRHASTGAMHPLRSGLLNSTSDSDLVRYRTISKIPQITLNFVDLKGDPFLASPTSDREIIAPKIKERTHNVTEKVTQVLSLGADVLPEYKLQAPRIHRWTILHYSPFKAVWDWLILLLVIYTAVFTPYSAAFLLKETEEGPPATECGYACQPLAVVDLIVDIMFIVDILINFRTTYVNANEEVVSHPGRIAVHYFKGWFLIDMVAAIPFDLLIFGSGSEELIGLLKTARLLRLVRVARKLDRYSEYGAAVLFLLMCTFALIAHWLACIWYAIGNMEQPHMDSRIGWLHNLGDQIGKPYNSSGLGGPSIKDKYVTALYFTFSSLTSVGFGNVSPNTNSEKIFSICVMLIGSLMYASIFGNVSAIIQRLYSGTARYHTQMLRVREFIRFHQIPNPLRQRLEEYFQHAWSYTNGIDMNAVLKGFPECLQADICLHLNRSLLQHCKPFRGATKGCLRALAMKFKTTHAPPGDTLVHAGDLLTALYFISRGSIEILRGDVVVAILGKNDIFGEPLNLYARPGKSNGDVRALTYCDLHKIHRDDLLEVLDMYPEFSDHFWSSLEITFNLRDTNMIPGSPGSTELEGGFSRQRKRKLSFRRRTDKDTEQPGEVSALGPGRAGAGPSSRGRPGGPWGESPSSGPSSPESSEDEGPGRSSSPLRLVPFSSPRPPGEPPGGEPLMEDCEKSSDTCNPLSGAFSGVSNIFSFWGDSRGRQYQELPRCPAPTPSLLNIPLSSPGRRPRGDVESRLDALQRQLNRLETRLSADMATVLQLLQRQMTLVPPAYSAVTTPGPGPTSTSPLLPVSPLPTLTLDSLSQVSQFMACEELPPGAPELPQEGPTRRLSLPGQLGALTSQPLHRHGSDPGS

Compound	IC50 [µM]	IC20 [µM]	hERG IC20/TLR7 IC50	hERG IC20/TLR8 IC50	hERG IC20/TLR9 IC50
Cc1cc(N2CC(NC[C@H]3CN(c4ccc(C#N)c5ncccc45)C[C@@H](C)O3)C2)cc(CO)n1 [Example 30]	> 10	4.51	69.4	322.0	51.2
C[C@@H]1CN(c2ccc(C#N)c3ncccc23)C[C@H](CN2CCN(c3cc(N)nc(CO)c3)CC2)O1 [Example 45, 5-[(2S,6R)-2-[[4-[2-amino-6-(hydroxymethyl)-4-pyridyl]piperazin-1-yl]methyl]-6-methyl-morpholin-4-yl]quinoline-8-carbonitrile]	> 20	> 10	>256.4	>714.3	>109.9
Cc1cc(NC2CCN(C[C@H]3CN(c4ccc(C#N)c5ncccc45)C[C@@H](C)O3)CC2)cc(CO)n1 [Example 5]	> 20	7.18	121.8	217.7	224.5
Cc1cc(NC2CCN(C[C@H]3CN(c4ccc(C#N)c5ncccc45)C[C@@H](C)O3)C2)cc(CO)n1 (some centres unmarked) [Example 6]	> 20	5.83	132.4	109.9	142.1
Cc1cc(NC2CN(C[C@H]3CN(c4ccc(C#N)c5ncccc45)C[C@@H](C)O3)C2)cc(C)n1 [Example 7]	> 20	> 10	>384.6	>322.6	>256.4
CC(O)c1cc(N2CC3(CN(C[C@H]4CN(c5ccc(C#N)c6ncccc56)C[C@@H](C)O4)C3)C2)ccn1 (stereo partly drawn) [Example 46, 5-[(2S,6R)-2-[[2-[2-(1-hydroxyethyl)-4-pyridyl]-2,6-diazaspiro[3.3]heptan-6-yl]methyl]-6-methyl-morpholin-4-yl]quinoline-8-carbonitrile]	> 10	4.69	146.6	52.1	146.6
Cc1cc(N2CC3(CN(C[C@H]4CN(c5ccc(C#N)c6ncccc56)C[C@@H](C)O4)C3)C2)cc(CO)n1 [Example 1, 5-[(2S,6R)-2-[[2-[2-(hydroxymethyl)-6-methyl-4-pyridyl]-2,6-diazaspiro[3.3]heptan-6-yl]methyl]-6-methyl-morpholin-4-yl]quinoline-8-carbonitrile]	> 20	> 10	>357.1	>123.5	>294.1
